Assay results published in patent US12171229B2, “Heteroaryl-triazole and heteroaryl-tetrazole compounds as pesticides” (BAYER AKTIENGESELLSCHAFT, priority 2018, dated 2024).

Experiments:
Type in all cases: in vivo
[1] = test system: cattle ticks (Boophilus microplus) strane Parhurst, SP-resistant; test: Boophilus microplus dip test; conditions: Rhipicephalus microplus, 168 h, engorged adult female cattle ticks, egg deposition after 7 days, read-out: efficacy (infertile eggs)
Protocol: Boophilus microplus—Dip Test
Test animal: cattle ticks (Boophilus microplus) strane Parhurst, SP-resistant
Solvent: dimethyl sulfoxide
To produce a suitable preparation of active compound, 10 mg of active compound are dissolved in 0.5 ml solvent, and the concentrate is diluted with water to the desired concentration.
This compound solution is pipetted into tubes. 8-10 engorged, adult, female cattle ticks (Boophilus microplus) are placed in perforated tubes. These tubes are immersed in the aqueous compound solution until the ticks are completely moistened. After the liquid has drained off, the ticks are transferred to a filter paper in a plastic tray and stored in a climate chamber.
After 7 days egg deposition of fertile eggs is monitored. Eggs where fertility is not visible are stored in a climate chamber till hatching after about 42 days. An efficacy of 100% means all eggs are infertile; 0% means all eggs are fertile.

Nezara viridula = Nezara viridula spray test; conditions: 96 h, after 4 days, larvae on barley plants
Procedure, shortened: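 Barley plants infested with Nezara viridula larvae were sprayed with compound diluted in water containing 1000 ppm emulsifier. Percent mortality was scored 4 days later, where 100% means all bugs killed and 0% none.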

Phaedon cochleariae = Phaedon cochleariae spray test; conditions: foliar, 168 h, after 7 days, larvae on Chinese cabbage leaf disks
Protocol: Phaedon Cochleariae—Spray Test
(§1) To produce a suitable preparation of active compound, 1 part by weight of active compound is mixed with the stated amount of solvents and is diluted with water, containing an emulsifier concentration of 1000 ppm, to the desired concentration. Further test concentrations are prepared by dilution with emulsifier containing water.
Chinese cabbage (Brassica pekinensis) leaf disks are sprayed with a preparation of the active ingredient of the desired concentration. Once dry, the leaf disks are infested with mustard beetle larvae (Phaedon cochleariae).
After 7 days mortality in % is determined. 100% means all beetle larvae have been killed and 0% means none of the beetle larvae have been killed.

Spodoptera frugiperda = Spodoptera frugiperda spray test; conditions: 168 h, after 7 days, larvae on maize leaf sections
Procedure, shortened: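 Caterpillars are placed on sprayed, dried maize leaf sections. Sprays contain compound diluted in water with emulsifier at 1000 ppm; mortality in % is determined 7 days later.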

[2] = test system: Culex quinquefasciatus strain P00; test: Culex quinquefasciatus test (CULXFA surface treatment & contact assay); conditions: 24 hours after contact, read-out: efficacy (mortality); for mortality at 4 mg/m2: surface concentration 4 mg/m^2, exposure 30 minutes; for mortality at 20 mg/m2: surface concentration 20 mg/m^2, exposure 30 minutes
Procedure, shortened: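 Compound dissolved in acetone (2 mg/ml) with 2000 ppm rapeseed oil methyl ester, applied to glazed tile and dried; adult C. quinquefasciatus strain P00 exposed to surface for 30 minutes. Mortality (%) scored 24 hours after contact.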

[3] = test system: Blattella germanica strain PAULINIA; test: whole plant or invertebrate; conditions: read-out: efficacy (mortality)
Protocol: Blattella Germanica Test (BLTTGE Surface Treatment & Contact Assay)
Solvent: Aceton+2000 ppm rapeseed oil methyl ester (RME)
In order to produce a sufficient, active ingredient containing solution it is necessary to solve the test compound in the solvent-mix (acetone at 2 mg/ml/RME 2000 ppm). This solution is pipetted onto a glazed tile and after evaporation of the acetone, adult animals of the species Blattella germanica strain PAULINIA are placed onto the dried surface. The exposure time is 30 minutes.
Mortality in percent (%) is determined 24 hours after contact of the insects to the treated surface. 100% mortality means that all tested insects are dead, whereas 0% means that no insect died.

Rhipicephalus sanguineus = Rhipicephalus sanguineus in-vitro contact test, adult brown dog ticks; conditions: 5 μg/cm^2 (=500 g/ha), after 48 hours, read-out: efficacy (ticks dead or moribund)
Protocol: Rhipicephalus Sanguineus—In-Vitro Contact Tests with Adult Brown Doe Ticks
9 mg compound is solved in 1 ml acetone and diluted with acetone to the desired concentration. 250 μl of the test solution is filled in 25 ml glass test tubes and homogeneously distributed on the inner walls by rotation and tilting on a shaking device (2 h at 30 rpm). With a compound concentration of 900 ppm, an inner surface of 44.7 cm^2 and a homogeneous distribution, a dose of 5 μg/cm^2 is achieved.
After the solvent has evaporated, each test tube is filled with 5-10 adult brown dog ticks (Rhipicephalus sanguineus), closed with a perforated lid and incubated in a lying position at room temperature and relative humidity. After 48 hours efficacy is determined. The ticks are patted on the ground of the tubes and are incubated on a heating plate at 45-50° C. for at most 5 minutes. Immotile or uncoordinated moving ticks, which are not able to escape the heat by climbing upwards, are marked as dead or moribund.
An efficacy of 100% means all ticks are dead or moribund; 0% means no ticks are dead or moribund.

Myzus persicae = Myzus persicae spray test; conditions: foliar, 120 h, after 5 days, Chinese cabbage leaf disks
Procedure, shortened: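 Chinese cabbage leaf disks infested with all aphid instars were sprayed with compound diluted in water containing emulsifier (1000 ppm). Mortality (%) was scored after 5 days, 100% meaning all aphids killed.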

Nilaparvata lugens = Nilaparvata lugens spray test; conditions: 336 h, after 14 days, rice plants
Protocol: Nilaparvata lugens—Spray Test
as §1
Rice plants (Oryza sativa) are sprayed with a preparation of the active ingredient of the desired concentration and the plants are infested with the brown planthopper (Nilaparvata lugens).
After 14 days mortality in % is determined. 100% means all planthoppers have been killed and 0% means none of the planthoppers have been killed.

Tetranychus urticae = Tetranychus urticae spray test (OP-resistant); conditions: foliar, 144 h, after 6 days, French bean leaf disks
Protocol: Tetranychus urticae—Spray Test (OP-Resistant)
as §1
French bean (Phaseolus vulgaris) leaf disks infected with all instars of the two spotted spidermite (Tetranychus urticae), are sprayed with a preparation of the active ingredient of the desired concentration.
After 6 days mortality in % is determined. 100% means all spider mites have been killed and 0% means none of the spider mites have been killed.

Row | Structure (SMILES) | pest or weed control at 100 ppm [1] [%] | mortality at 100 g/ha (Nezara viridula) [%] | mortality at 500 g/ha (Nezara viridula) [%] | mortality at 500 g/ha (Phaedon cochleariae) [%] | mortality at 100 g/ha (Spodoptera frugiperda) [%] | mortality at 500 g/ha (Spodoptera frugiperda) [%] | mortality at 4 mg/m2 [2] [%] | mortality at 20 mg/m2 [2] [%] | mortality at 20 mg/m2 [3] [%] | pest or weed control at 5 µg/cm2 (Rhipicephalus sanguineus) [%] | mortality at 500 g/ha (Myzus persicae) [%] | mortality at 100 g/ha (Myzus persicae) [%] | mortality at 500 g/ha (Nilaparvata lugens) [%] | mortality at 500 g/ha (Tetranychus urticae) [%]
1 | CC(c1ncnn1-c1ccc(C#N)cn1)N(CC1CC1)C(=O)c1cc(Cl)cc(C(F)(F)F)c1 (centres unmarked) [Example I-007] | 80 | 100 | 100 | 100 | 100 | 100 | 90 to 100 | 90 to 100 | 80 to 100 | – | – | – | – | –
2 | C[C@H](NC(=O)c1cc(Cl)cc(C(F)(F)F)c1)c1ncnn1-c1ccc(C#N)cn1 [Example I-009] | 100 | – | 100 | – | 100 | 100 | 90 to 100 | – | – | 100 | 90 | – | – | –
3 | C[C@H](NC(=O)c1cc(Cl)cc(C(F)(F)F)c1)c1ncnn1-c1ncc(Cl)cc1F [Example I-013] | 100 | – | 100 | – | 100 | 100 | 90 to 100 | 90 to 100 | – | – | 100 | 90 | – | –
4 | C[C@H](NC(=O)c1cc(Cl)cc(C(F)(F)F)c1)c1ncnn1-c1cc(C#N)ccn1 [Example I-015] | – | – | 100 | – | 100 | 100 | 90 to 100 | 90 to 100 | – | 100 | 100 | 100 | – | –
5 | C[C@H](NC(=O)c1cc(F)cc(C#N)c1)c1ncnn1-c1ccc(C#N)cn1 [Example I-018] | – | 100 | 100 | – | 100 | 100 | 90 to 100 | 90 to 100 | – | – | – | – | – | –
6 | C[C@H](NC(=O)c1cc(F)cc(C(F)(F)F)c1)c1ncnn1-c1ccc(C#N)cn1 [Example I-019] | 100 | – | 90 | – | 100 | 100 | 90 to 100 | 90 to 100 | – | – | – | – | – | –
7 | C[C@H](NC(=O)c1cc(Cl)cc(C(F)(F)F)c1)c1ncnn1-c1ccc([N+](=O)[O-])cn1 [Example I-028] | 100 | 100 | 100 | – | 100 | 100 | 90 to 100 | 90 to 100 | – | – | – | – | – | –
8 | C[C@H](NC(=O)c1cc(Cl)cc(C(F)(F)F)c1)c1ncnn1-c1ccc(NC(=O)C2CC2)cn1 [Example I-034, 3-chloro-N-[(1S)-1-(1-{5-[(cyclopropylcarbonyl)amino]pyridin-2-yl}-1H-1,2,4-triazol-5-yl)ethyl]-5-(trifluoromethyl)benzamide] | – | 100 | 100 | – | 100 | 100 | 90 to 100 | 90 to 100 | – | – | 100 | 100 | 100 | –
9 | C[C@H](NC(=O)c1cc(Cl)cc(OC(F)(F)F)c1)c1ncnn1-c1ccc(C#N)cn1 [Example I-041, 3-chloro-N-{(1S)-1-[1-(5-cyanopyridin-2-yl)-1H-1,2,4-triazol-5-yl]ethyl}-5-(trifluoromethoxy)benzamide] | 100 | 100 | 100 | – | 100 | 100 | 90 to 100 | 90 to 100 | – | – | – | – | 90 | –
10 | C[C@H](NC(=O)c1cc(Cl)cc(SC(F)(F)F)c1)c1ncnn1-c1ccc(C#N)cn1 [Example I-042] | 80 | 100 | 100 | – | 100 | 100 | 90 to 100 | 90 to 100 | – | – | – | – | – | 90
11 | C[C@H](NC(=O)c1cc(Cl)cc(Br)c1)c1ncnn1-c1ccc(C#N)cn1 [Example I-046] | 100 | – | – | – | 100 | 100 | 90 to 100 | 90 to 100 | – | – | – | – | – | –
12 | C[C@H](NC(=O)c1cc(Cl)cc(Cl)c1)c1ncnn1-c1ccc(C#N)cn1 [Example I-047] | 100 | – | 100 | – | 100 | 100 | 90 to 100 | 90 to 100 | – | – | – | – | – | –
13 | C[C@H](NC(=O)c1cc(Cl)cc(S(F)(F)(F)(F)F)c1)c1ncnn1-c1ccc(C#N)cn1 [Example I-048] | – | 100 | 100 | – | 100 | 100 | 90 to 100 | 90 to 100 | – | – | – | – | 100 | –
14 | Cc1nc([C@H](C)NC(=O)c2cc(Cl)cc(C(F)(F)F)c2)n(-c2ccc(C#N)cn2)n1 [Example I-049] | 100 | 100 | 100 | – | 100 | 100 | 90 to 100 | 90 to 100 | – | 100 | 90 | 100 | 100 | –
15 | C[C@H](NC(=O)c1cc(C(F)(F)F)cc(C(F)(F)F)c1)c1ncnn1-c1ccc(C#N)cn1 [Example I-052] | – | 100 | 100 | – | 100 | 100 | 90 to 100 | 90 to 100 | – | 100 | 90 | – | – | –
16 | Cc1nc([C@H](C)NC(=O)c2cc(C(F)(F)F)cc(C(F)(F)F)c2)n(-c2ccc(C#N)cn2)n1 [Example I-056] | – | 100 | 100 | – | 100 | 100 | 90 to 100 | 90 to 100 | – | 100 | 90 | 100 | – | –
